Laboratory results published in patent US9399663B2, “Competitive inhibitor of GP120” (priority 2014, dated 2016).
Where “and” joins values, the source holds several entries; their conditions need not be identical. Equal entries are not always repeated. Where two headings read alike, the source gives them in different places.

Key:
gp120IIIB = gp120IIIB (Human immunodeficiency virus type 1 group M subtype B, UniProt P04578); conditions: dot blot, 2 μg peptide spotted, 5 μg gp120IIIB
Experimental: Dot blot analysis: CTTs or Helix-A and -B peptides (2 μg each) were spotted on a nitrocellulose membrane and allowed to dry. The membrane was then incubated in blocking buffer (5% BSA in TBST [[…] NaCl, 20 mM Tris-base, pH 7.5, 0.05% TWEEN® 20]) for 2 hours followed by incubation with a solution composed of 5 μg recombinant gp120 (for binding to CTTs) or 5 μg recombinant TUBB3 (for Helix-A and -B) in 20 mL of TBST for 2 hours. The membranes were washed and then incubated with a mouse anti-gp120 antibody (1:1000; Immunodiagnostics, Inc.) or mouse anti-TUBB3 antibody (1:5000; Covance, N.J.) in TBST for 2 hours. Membranes were washed and incubated in goat anti-mouse HP-conjugated secondary antibody (1:20,000; Jackson ImmunoResearch Laboratories, Inc., PA). Visualization of the bands was then accomplished by the addition of PIERCE® SUPERSIGNAL™ West Pico-Stable Peroxidase Solution and Luminol/Enhancer Solution (Pierce Biotechnology, Inc., Rockford, Ill.).
Several CTTs (see Table 1) synthesized by […]® were used. Peptides (2 μg each) were spotted on a nitrocellulose membrane and incubated with a solution composed of 5 μg of gp120IIIB (Immunodiagnostics) in 20 mL of TBS-TWEEN® 2 hours at RT, followed by incubation with a specific primary antibody (Immunodiagnostics, +4° C., ON). Following incubation with a corresponding HRP-conjugated secondary antibody 1 hour at RT, the immunocomplexes were visualized with chemiluminescence.

recombinant TUBB3 = target: T1, recombinant TUBB3 (Homo sapiens, UniProt Q13509); experiment: SPR (BIACORE T200) binding to immobilized TUBB3; conditions: for SPR response (2-1) RU, Fc2: Tubulin β-3 1092 RU: 60 sec injection; for Kd: Ligand: TUBB3
T1 construct: purchased MyBioSource, San Diego, Calif
T1 sequence (Q13509 whole entry): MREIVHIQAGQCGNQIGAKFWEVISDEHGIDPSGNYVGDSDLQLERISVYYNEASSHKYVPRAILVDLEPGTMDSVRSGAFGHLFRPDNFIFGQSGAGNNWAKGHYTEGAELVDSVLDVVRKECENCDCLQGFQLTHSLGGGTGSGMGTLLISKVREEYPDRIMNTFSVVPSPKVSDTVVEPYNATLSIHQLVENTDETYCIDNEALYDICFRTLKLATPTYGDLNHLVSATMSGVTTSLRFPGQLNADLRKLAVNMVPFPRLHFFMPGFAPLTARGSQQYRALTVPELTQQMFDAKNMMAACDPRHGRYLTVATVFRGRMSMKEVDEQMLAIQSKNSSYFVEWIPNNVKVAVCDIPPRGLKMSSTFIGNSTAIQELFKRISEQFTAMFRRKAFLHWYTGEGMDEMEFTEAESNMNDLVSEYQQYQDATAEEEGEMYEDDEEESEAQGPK
Experimental: (§1) Surface plasmon resonance (SPR). BIACORE® T200™ was used to determine the kinetic parameters for the binding of recombinant TUBB3, tubulin dimer, and assembled microtubules (ligands) to the various isoforms of gp120 or related peptides (analytes). Recombinant TUBB3, tubulin dimer, and assembled MTs were covalently attached to different flow cells of a carboxymethyldextran (CM5) sensor chip by amine coupling. The chip surface was activated for 720 sec at 10 μL/min with of 1:1 mixture of 0.1 M N-Hydroxysuccinimide (NHS) and 0.5 M 1-Ethyl-3-(-3-dimethylaminopropyl)-carbodiimide hydrochloride (EDC). […] After ligand capture, the surfaces were deactivated by injecting 1 M ethanolamine for 720 sec at 10 μL/min. HBS-P (10 mM HEPES, pH7.4, 150 mM NaCl, 0.05% P-20) with 2 mM MgCl2 used as the running buffer. Flow cell 1 on each chip was left empty and used for reference surface. […] Kinetic studies were performed by injecting different concentrations of the analytes in triplicate. The chip surface was regenerated by with 10 mM glycine pH 1.5 injected for 30 sec at a flow rate of 100 μL/min. Each sample was injected for 60 sec (contact time) followed by a dissociation time of 300 sec at a flow rate of 100 μL/min. Data was analyzed with BIACORE® T200™ Evaluation Software (version 1) to determine the equilibrium dissociation constant (KD) from a 1:1 binding model. Binding studies with peptides Helix A and Helix B were done in the same way as described above. Kinetic studies were performed by injecting different concentrations (20 μM, 10 μM, 5 μM, 2.5 μM, 1.25 μM and 0.625 μM) of Helix A and Helix B. Competition experiments with Helix A and Helix B were performed by mixing 100 nM gp120 isoforms with 10 μM of each peptide and injecting over the sensorchip surface.
Recombinant TUBB3, tubulin dimer, and assembled MTs from bovine brains were immobilized on a BIACORE® CM5 chip by amine coupling. Different concentrations of gp120s (from 3.13 to 100 nM) were injected over the surface in triplicates in each experiment. The kinetics of interaction was analyzed using a BIACORE® T200™ instrument. BiaEvaluation software was used to calculate binding affinities based on 1:1 binding model.

tubulin dimer = experiment: SPR (BIACORE T200) binding to immobilized tubulin dimer; design: species or system Porcine; conditions: 1 uM peptide alone; 60 sec injection
Experimental: as §1
Recombinant TUBB3, tubulin dimer, and assembled MTs from bovine brains were immobilized on a BIACORE® CM5 chip by amine coupling. Different concentrations of gp120s (from 3.13 to 100 nM) were injected over the surface in triplicates in each experiment. The kinetics of interaction was analyzed using a BIACORE® T200™ instrument. […]

assembled MTs = experiment: SPR (BIACORE T200) binding to immobilized assembled microtubules; design: species or system Porcine; conditions: 1 uM peptide alone; 60 sec injection
Experimental: Surface plasmon resonance (SPR). BIACORE® T200™ was used to determine the kinetic parameters for the binding of recombinant TUBB3, tubulin dimer, and assembled microtubules (ligands) to the various isoforms of gp120 or related peptides (analytes). Recombinant TUBB3, tubulin dimer, and assembled MTs were covalently attached to different flow cells of a carboxymethyldextran (CM5) sensor chip by amine coupling. The chip surface was activated for 720 sec at 10 μL/min with of 1:1 mixture of 0.1 M N-Hydroxysuccinimide (NHS) and 0.5 M 1-Ethyl-3-(-3-dimethylaminopropyl)-carbodiimide hydrochloride (EDC). […] After ligand capture, the surfaces were deactivated by injecting 1 M ethanolamine for 720 sec at 10 μL/min. HBS-P (10 mM HEPES, pH7.4, 150 mM NaCl, 0.05% P-20) with 2 mM MgCl2 used as the running buffer. Flow cell 1 on each chip was left empty and used for reference surface. TUBB3 (1040 RU), tubulin dimer (2086 RU), and assembled MTs (990 RU) were captured on the remaining 3 flow cells. Kinetic studies were performed by injecting different concentrations of the analytes in triplicate. The chip surface was regenerated by with 10 mM glycine pH 1.5 injected for 30 sec at a flow rate of 100 μL/min. Each sample was injected for 60 sec (contact time) followed by a dissociation time of 300 sec at a flow rate of 100 μL/min. Data was analyzed with BIACORE® T200™ Evaluation Software (version 1) to determine the equilibrium dissociation constant (KD) from a 1:1 binding model. Binding studies with peptides Helix A and Helix B were done in the same way as described above. Kinetic studies were performed by injecting different concentrations (20 μM, 10 μM, 5 μM, 2.5 μM, 1.25 μM and 0.625 μM) of Helix A and Helix B. Competition experiments with Helix A and Helix B were performed by mixing 100 nM gp120 isoforms with 10 μM of each peptide and injecting over the sensorchip surface.
Recombinant TUBB3, tubulin dimer, and assembled MTs from bovine brains were immobilized on a BIACORE® CM5 chip by amine coupling. […] The kinetics of interaction was analyzed using a BIACORE® T200™ instrument. […]

[1] = target: T2, gp120 binding to Tubulin β-3 (Homo sapiens, UniProt Q13509); experiment: SPR competition: gp120 premixed with Helix peptide injected over TUBB3; conditions: 60 sec injection
T2 construct: purchased MyBioSource (TUBB3); Immunodiagnostics Inc, Woburn, Mass; (gp120s)
T2 sequence (Q13509 whole entry): as above
Description: (§2) BIACORE® T200™ was used to determine the kinetic parameters for the binding of recombinant TUBB3, tubulin dimer, and assembled MTs to gp120s in the absence and presence of Helix-A peptide. […] Representative data are from one of three independent experiments.
(§3) Surface plasmon resonance (SPR). BIACORE® T200™ was used to determine the kinetic parameters for the binding of recombinant TUBB3, tubulin dimer, and assembled microtubules (ligands) to the various isoforms of gp120 or related peptides (analytes). Recombinant TUBB3, tubulin dimer, and assembled MTs were covalently attached to different flow cells of a carboxymethyldextran (CM5) sensor chip by amine coupling. The chip surface was activated for 720 sec at 10 μL/min with of 1:1 mixture of 0.1 M N-Hydroxysuccinimide (NHS) and 0.5 M 1-Ethyl-3-(-3-dimethylaminopropyl)-carbodiimide hydrochloride (EDC). […] After ligand capture, the surfaces were deactivated by injecting 1 M ethanolamine for 720 sec at 10 μL/min. HBS-P (10 mM HEPES, pH7.4, 150 mM NaCl, 0.05% P-20) with 2 mM MgCl2 used as the running buffer. Flow cell 1 on each chip was left empty and used for reference surface. TUBB3 (1040 RU), tubulin dimer (2086 RU), and assembled MTs (990 RU) were captured on the remaining 3 flow cells. […] Data was analyzed with BIACORE® T200™ Evaluation Software (version 1) to determine the equilibrium dissociation constant (KD) from a 1:1 binding model. […]

[2] = system: gp120 binding to tubulin dimer; experiment: SPR competition: gp120 premixed with Helix peptide injected over tubulin dimer; design: species or system Porcine; conditions: 60 sec injection
Experimental: BIACORE® T200™ was used to determine the kinetic parameters for the binding of recombinant TUBB3, tubulin dimer, and assembled MTs to gp120s in the absence and presence of Helix-A peptide. Gp120s (100 nM) were injected over the surface alone or as a premix with Helix-A peptides (10 μM). Representative data are from one of three independent experiments.
as §3, with “surface.” for “surface. TUBB3 (1040 RU), tubulin dimer (2086 RU), and assembled MTs (990 RU) were captured on the remaining 3 flow cells.”

[3] = system: gp120 binding to microtubules; experiment: SPR competition: gp120 premixed with Helix peptide injected over microtubules; design: species or system Porcine; conditions: 60 sec injection
Description: as §2, §3

[4] = 100 nM GP120IIIB + 1 uM peptide
[5] = 100 nM GP120IIIB + 10 uM peptide

Substance: EDDEEESEA [SEQ ID NO: 13]
- Binding to gp120 (gp120IIIB; listed as tubulin β-3 (TUBB3)): potential binding partners

Substance: EGEGEEEGE [SEQ ID NO: 5]
- Binding to gp120 (gp120IIIB): YES
- Binding to gp120 (gp120IIIB; listed as tubulin-α1A/1B Δ2): potential binding partners

Substance: RAKWNNTLKQIASK (listed as Homo sapiens) [Helix B]
- SPR response (2-1) RU, Fc2: Tubulin β-3 1092 RU (recombinant TUBB3; 10 uM peptide alone): 1.1 RU and 1.2 RU
- SPR response (3-1) RU, Fc3: Tubulin Dimer 1900 RU (tubulin dimer): 0.4 RU and 0.5 RU
- SPR response (4-1) RU, Fc4: Microtubules 970 RU (assembled MTs): N/B
- SPR response (2-1) RU, Fc2: Tubulin β-3 1092 RU [1, 4]: 33 RU
- SPR response (2-1) RU, Fc2: Tubulin β-3 1092 RU [1, 5]: 34 RU and 32 RU
- SPR response (3-1) RU, Fc3: Tubulin Dimer 1900 RU [2, 4]: 18.5 RU
- SPR response (3-1) RU, Fc3: Tubulin Dimer 1900 RU [2, 5]: 20 RU and 18 RU
- SPR response (4-1) RU, Fc4: Microtubules 970 RU [3, 4]: 16.5 RU
- SPR response (4-1) RU, Fc4: Microtubules 970 RU [3, 5]: 19 RU and 20 RU

Substance: gp120MN: HIV envelope protein gp120, strain MN, purchased from Immunodiagnostics
- SPR response (2-1) RU, Fc2: Tubulin β-3 1092 RU (recombinant TUBB3; 100 nM gp120 alone): 9 RU and 8.8 RU
- Kd (recombinant TUBB3; mean of two independent experiments, read-out: Mean KD): 740 nM
- Kd (recombinant TUBB3; single experiment, gp120 3.13 to 100 nM, 1:1 binding model, read-out: KD): 579 nM and 901 nM
